Measured values as given in the METLIN SMRT retention time set (Domingo-Almenara et al. 2019).

experiment: gradient 5% acetonitrile 3 min, to 50% in 2 min, to 85% in 15 min, held 3 min, 100 µL/min; conditions: column: Zorbax Extend-C18 2.1 x 50 mm; eluents: water / acetonitrile, 0.1% formic acid
Procedure, shortened: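 Pure standards were analyzed in mixtures of ~100 molecules using HPLC coupled to a quadrupole time-of-flight mass spectrometer, in both positive and negative ionization mode. Separation used a Zorbax Extend-C18 column (2.1 × 50 mm, 1.8 μm) at 100 μL/min, with water and acetonitrile each containing 0.1% formic acid. Dead and dwell volumes were 40 μL and 900 μL, and data were collected over 3 months. Retention time was read from computationally picked adduct peaks, each inspected manually.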

Compound	RP-LC retention time [s]
CC(C)NC(=O)N1CCCC(c2cccc(C(=O)NCc3ccc(Cl)cc3)c2)C1 (stereo not drawn)	923
Cc1ccc2c(c1)N(C(=O)CCC(=O)NCCCN1CCN(C3CCCCC3)CC1)CC(C)O2 (stereo not drawn)	603
Cc1nnc(-c2nnc(NC3CCCCCC3)c3ccccc23)o1	766
CCc1nc(-c2csc(S(=O)(=O)N3CCC(C(=O)Nc4cccc(C#N)c4)CC3)c2)no1	966
CCC(CC)C(=O)NCCc1nc2cccnc2n1-c1ccccc1	744
O=S1(=O)C[C@H](N2CCN(c3ccccn3)CC2)[C@@H](S(=O)(=O)c2cccs2)C1	586
Cc1cc(N2CCN(C(=O)c3ccc(F)cc3Cl)CC2)nc(N2CCOCC2)n1	637
COc1ccc(CN2C=C(C(=O)OCc3nc(-c4ccccc4)no3)C(C)=NS2(=O)=O)cc1	1100
O=S(=O)(c1ccc(-c2noc(-c3cccc(Br)c3)n2)cc1)N1CCOCC1	1190
Brc1ccc(-c2nc(-c3ccc4nncn4c3)no2)cc1	913
O=C(CCc1ccc2c(c1)CN(C(=O)C1COc3ccccc3O1)CCO2)N1CCOCC1 (stereo not drawn)	779
CCOC(=O)c1c(NC(=O)C2CCN(S(=O)(=O)Cc3ccccc3)CC2)sc2c1CCCC2	1340
CCOC(=O)c1cnc2nc(C)ccc2c1Nc1cc(OC)ccc1OC	709
Cc1c(-c2ccnc(N3CCN(C)CC3)n2)cnc2nc(-c3ccccc3)nn12	640
Cc1cc(F)ccc1NS(=O)(=O)c1cc(-c2cc(C(F)(F)F)on2)sc1C	1160
O=C(Cn1nc(C2CC2)cc1C(=O)N1CCCC1)NCc1cccc(Cl)c1	782
O=C(CCc1c[nH]c2ccccc12)N1CCn2cnnc2C1	778
CCOC(=O)N1CCN(C(=O)CSc2ncnc3c2oc2ccccc23)CC1	742
CCc1noc(NC(C)=O)c1-c1ccc(C)c(S(=O)(=O)NCc2ccccc2Cl)c1	914
COc1cc(OC)c(NC(=O)Nc2cc(C)on2)cc1Cl	865
Cc1ccc(C)c(N2CCN(S(=O)(=O)c3c(C)sc(C)c3-c3cc(C)[nH]n3)CC2)c1	1150
Cc1cc2c(cc1S(=O)(=O)N1CCCC1C(=O)NC1CCCC1)OCC(=O)N2 (stereo not drawn)	718

Compound	RP-LC retention time [s]
CCn1cc(C2=CCN(C(=O)Nc3ccc4c(c3)OCCO4)CC2)c2cccnc21	789
Cc1nn(CC(=O)NCCN2CCN(Cc3ccccc3)CC2)c(=O)c2noc(C)c12	576
O=C(Nc1nc(-c2cccc([N+](=O)[O-])c2)cs1)c1ccc(Cl)cc1Cl	1060
COc1cccc(CNC(=O)C2(C)CCN(C(=O)Nc3ccccc3C(F)(F)F)CC2)c1	806
Cc1cccc(NC(=O)N2CCc3c(c(-c4nnc(-c5ccc(F)cc5)o4)nn3C)C2)c1C	854
O=C(NCC1OCCc2ccccc21)C(=O)Nc1ccccc1 (stereo not drawn)	956
COc1ccc(C)cc1NC(=O)Cc1csc2nc(-c3cccc(Br)c3)cn12	1060
CCN(CC)CCCC(C)Nc1nc(/C=C/c2cc(OC)c(OC)cc2Cl)nc2cc(Cl)ccc12 (stereo not drawn)	595
O=C(Nc1ccc(-c2nc(-c3ccccc3)co2)cc1)c1ccc(Br)o1	1190
CC(NC(=O)Nc1ccc(Br)cc1)C(=O)N1CCc2ccccc21 (stereo not drawn)	941
CS(=O)(=O)N1CCCc2cc(C(=O)NCCCN3CCOCC3)ccc21	585
O=C(c1ccc(OCC2CCCN2C(=O)Cc2ccc(Cl)cc2)cc1)N1CCOCC1 (stereo not drawn)	811
O=c1n(Cc2cccc(Br)c2)nc2c(S(=O)(=O)N3CCc4ccccc4C3)cccn12	1030
CCCn1cc(CCNC(=O)c2ccnn2CC)c2cccnc21	678
Cc1cc(NC(=O)c2ccc3c(c2)CCCC3)n(C(C)C)n1	835
CCCc1noc(-c2ccc3nnc(CC(=O)Nc4ccc(Cl)cc4)n3c2)n1	937
O=C(C1CCC1)N1CCc2sc(S(=O)(=O)Nc3ccc(Cl)cc3)cc2C1	929
O=C(Nc1ccc(F)c(Cl)c1)Nc1nccn(-c2ccc(F)cc2)c1=O	1010
Cc1cccc(NC(=O)Nc2cccc(-c3ccc(N4CCOCC4)nn3)c2)c1	714
CCOc1ccc(-c2ccc(=O)n(Cc3nc(-c4ccccc4C)no3)n2)cc1	1040
COc1ccc(-c2nc(C)c(C(=O)O)s2)cc1OC	730
COc1ccc(CC(=O)N2CCc3cc(-c4noc(C)n4)ccc32)cc1Cl	979

Compound	RP-LC retention time [s]
Cc1ccc(-c2cn3c(n2)N(C(=O)c2cnn4cccnc24)CCC3)cc1	613
COC[C@@H]1CN(c2cnccn2)C[C@H]1C(=O)NC(C)C	572
CCOC(=O)c1c(S(=O)(=O)N2CCC(C(=O)Nc3ccccc3OC)CC2)c(C)n(CC)c1C	891
CCC(C)C(NC(=O)Cc1ccccc1F)C(=O)Nc1nc2ccccc2[nH]1 (stereo not drawn)	736
O=C(C1CCCN(S(=O)(=O)N2CCOCC2)C1)N1CCN(c2ccc(F)cc2)CC1 (stereo not drawn)	807
CCn1cc(-c2ccc(OC)cc2)cc1C(=O)N(C)C	842
O=C(Cn1nc(-c2ccco2)ccc1=O)NCc1ccco1	628
CCOC(=O)CCC(=O)Nc1nnc(-c2cc(C)oc2C)o1	683
COc1ccc(-c2cc(C(=O)N3CCOCC3)nn2C2CCS(=O)(=O)C2)cc1 (stereo not drawn)	704
O=[N+]([O-])c1ccc(-c2nc(N3CCCCCC3)c3ccccc3n2)cc1	820
CC(C)c1c(C2CCN(C(=O)c3cc4ccccc4[nH]3)CC2)noc1N	824
O=C(NC1CC1)c1nnn2c1COC(c1ccc(Cl)cc1)C2 (stereo not drawn)	859
CN1C(=O)c2cc(C(=O)N3CCCCC3)nn2CC1(C)C(=O)NC1CCCCCC1 (stereo not drawn)	782
Cc1cc(-c2nnc(-c3ccccc3)o2)c(C)n1CC(=O)Nc1ccccc1	931
Cc1cccc(-n2ncc3c(N4CCN(CCO)CC4)ncnc32)c1	622
CC(C)CN(CC(C)C)c1nc(-c2ccc(Cl)cc2)nc2ccccc12	1130
CCC(C(=O)NCc1ccc2c(c1)ncn2CC)c1ccccc1 (stereo not drawn)	660
Cc1nc(C)c(C(=O)Nc2nc(-c3ccc(F)cc3)c(C)s2)s1	956
O=C(Cn1c(=O)nc(NC2CCCC2)c2ccccc21)Nc1cc(F)cc(F)c1	767
CCOC(=O)N1CCC(NC(=O)C2CCCN(c3ncnc4c3oc3ccccc34)C2)CC1 (stereo not drawn)	679
CCC(=O)N1CCN(c2nc3c(s2)CC(C(=O)Nc2cc(F)ccc2F)CC3)CC1 (stereo not drawn)	633
CCN(CC)C(=O)Cn1c(=O)c2cnc(-c3ccc(C)cc3)nc2n(C)c1=O	985

Compound	RP-LC retention time [s]
CCOC(=O)c1c(C)n(C)c2c1cc(O)c1ccccc12	945
Cc1nn(-c2ccc(-c3noc(C4CC4)n3)cc2)cc1C(=O)Nc1ccc(F)cc1F	773
COc1ccc(NC(=O)Cn2cnc3c(sc4nc(-c5ccccc5)ccc43)c2=O)cc1Cl	1030
CCOC(=O)c1noc2ncnc(N3CCN(c4ccc(OC)cc4)CC3)c12	955
COc1cccc(Cn2c(=O)c3sccc3n(Cc3nc(-c4ccccc4OC)no3)c2=O)c1	987
CC(C(=O)NCCc1ccco1)n1c(=O)c(C(F)(F)F)nc2ccccc21 (stereo not drawn)	698
O=S(=O)(c1ccccc1Br)N1CCc2nc(-c3ccccc3)ncc2C1	1090
CCCOc1ccc(NC(=O)c2cc(=O)c3ccc(C)cc3o2)c2cccnc12	686
Cc1ccc(S(=O)(=O)N2CCC3(CC2)NCCN=C3NCc2ccc(Cl)cc2)cc1	742
O=C(O)c1cn(Cc2ccccc2F)c(=O)c2ccccc12	801
Cn1cc(S(=O)(=O)N2CCCCC2)cc1C(=O)Nc1ccc2c(c1)OCO2	924
COc1ccc(-c2noc(Cn3ccn(-c4c(C)cccc4C)c(=O)c3=O)n2)cc1	870
COC(=O)c1cc(C)nc2c1c(=O)n(Cc1ccc(Cl)cc1)c(=O)n2Cc1ccco1	1160
COC[C@@H]1CN(Cc2c(OC)cccc2OC)C[C@H]1c1ccncc1	656
CC(Oc1ccc(Cl)cc1Cl)C(=O)NCCn1ncccc1=O (stereo not drawn)	722
CCOC(=O)c1c(CN2CCN(CC#N)CC2)n(C)c2cc(Br)c(OC(C)=O)cc12	706
Cn1c(=O)n(C)c2cc(NS(=O)(=O)c3ccc(F)cc3)c(Cl)cc21	726
O=C(C1CC(=O)N(c2ccc(F)cc2)C1)N1CCC(c2c[nH]c3ccccc23)CC1 (stereo not drawn)	810
COc1ccc(C)cc1NC(=O)N1c2ccccc2CC1c1nc(C2CC2)no1 (stereo not drawn)	1150
CCOC(=O)c1c(C)c(C(=O)CN(CC2CCCO2)C(=O)c2ccc(Cl)cc2)c(C)n1C (stereo not drawn)	987
CCOC(=O)c1c(NC(=O)CSc2nnc(-c3cccnc3)o2)sc2c1CCC2	932
Cc1nccn1C1CN(C(=O)C2CCCCC2)C1	572
